One may read the IC50 as the concentration that inhibits the measured activity by half.

The target in assay [1] is T1, Na^+, K^+ -ATPase receptor (Canis lupus familiaris, UniProt P50997).
T1 construct: Na^+, K^+ -ATPase receptor purified according to Jorghensen; from tissue
In words: displacement of the specific 3H-oubain binding from the Na+, K+-ATPase receptor. The note with it: 3H-oubain displacement from purified Na+,K+-ATPase; read-out: Binding ^3 H-oubain displacement -log IC50 (converted). The source says:
(§1) To test the affinity for the receptor site of the Na^+, K^+ -ATPase and the agonist or inhibitory activity on the enzyme, the following tests were used:
a) displacement of the specific ^3 H-oubain binding from the Na^+, K^+ -ATPase receptor purified according to Jorghensen (Jorghensen P., BBA, 1974, 356, 36) and Erdmann (Erdmann E. et al., Arzneim. Forsh, 1984, 34,1314);

The target of assay [2] is T2, purified Na^+, K^+ -ATPase (Canis lupus familiaris, UniProt P50997).
T2 construct: Na^+, K^+ -ATPase receptor purified according to Jorghensen; from tissue
The assay is described as follows: inhibition of the activity of the purified Na+, K+-ATPase (% of hydrolysis of 32P-ATP). The class given is biochemical.
Description: as §1
b) inhibition of the activity of the purified Na^+, K^+ -ATPase measured as % of hydrolysis of ^32 P-ATP in the presence and in the absence of the tested compound (Doucet A. et al., Am. J. Physiol., 1986, 251, F851).

Assay [3] concerns Na^+, K^+ -ATPase. Particulars: reported in DE 4,227,626; cited from earlier work.
Assay [4] relates to Na^+, K^+ -ATPase. The note with it: reported in DE 4,227,626; cited from earlier work. This is another data set of the same source.
Setting [5] is: purified Na+,K+-ATPase, 32P-ATP hydrolysis, read-out: Inhibitory activity -log IC50 (converted).

Where two headings read alike, the source gives them in different places.

Consider `CN(C)CCCON=C[C@H]1CC[C@H]2[C@@H]3CC=C4C[C@@H](O)CC[C@]4(C)[C@H]3CC[C@]12C` (mixture of isomers) [I-l, (EZ)-17β-(3-dimethylaminopropoxyiminomethyl)-androst-5-en-3β-ol], for which the IC50 is 1260 nM in assay [1] and 25100 nM in assay [2].

On to `C[C@]12CC[C@H]3[C@@H](CC=C4C[C@@H](O)CC[C@@]43C)[C@@H]1CC[C@@H]2C=NOCCCCN` (mixture of isomers) [I-n, (EZ)-17β-(4-aminobutoxyiminomethyl)-androst-5-en-3β-ol], for which the concentration for half-maximal inhibition (IC50) in assay [1] was 2000 nM; in assay [2] (setting [5]), 20000 nM.

As for `CC12CCC(O)CC1CCC1C2CCC2(C)C(C=NO)CCC12O` (stereo not drawn) [17-hydroxyiminomethyl-5β-androstan-3β-14β-diol], in the assay on Na^+, K^+ -ATPase [3], the “affinity for Na^+, K^+ -ATPase” value is given as “good affinity”. In the assay on Na^+, K^+ -ATPase [4], the “inhibition of the enzyme Na^+, K^+ -ATPase” value is “inhibit the enzyme”.

Take `CN(C)CCO/N=C/[C@H]1CC[C@H]2[C@@H]3CC[C@@H]4C[C@@H](OCCN5CCCC5)CC[C@]4(C)[C@H]3CC[C@]12C` [I-b, (E)-17β-[2-dimethylaminoethoxyiminomethyl]-3β-[2-(1-pirrolidinyl)ethoxy]-5β-androstane]: the IC50 in assay [1] is 501 nM; in assay [2] it was 7940 nM.

With `C[C@]12CC[C@H]3[C@@H](CC=C4C[C@@H](O)CC[C@@]43C)[C@@H]1CC[C@@H]2/C=N/OCCN` [I-e, (E)-17β-(2-aminoethoxyiminomethyl)-androst-5-en-3β-ol], the figures for the IC50 in assay [1] and in assay [2] (setting [5]) were 158 nM and 2000 nM, respectively.

On to `CN(C)CCO/N=C/[C@H]1CC[C@H]2[C@@H]3CC=C4C[C@@H](O)CC[C@]4(C)[C@H]3CC[C@]12C` [I-f, (E)-17β-[2-dimethylaminoethoxyiminomethyl]-androst-5-en-3β-ol], for which the IC50 in assay [1] is 5010 nM; in assay [2] it was 79400 nM.

Take `C[C@]12CC[C@H]3[C@@H](CC=C4C[C@@H](O)CC[C@@]43C)[C@@H]1CC[C@@H]2/C=C/C=N/OCCN` [I-g, (E,E)-17β-[3-(2-aminoethoxyimino)-1-propenyl]-androst-5-en-3β-ol]: the IC50 was 251 nM in assay [1] and 1580 nM in assay [2] (setting [5]).

`CN(C)CCO/N=C/C=C/[C@H]1CC[C@H]2[C@@H]3CC=C4C[C@@H](O)CC[C@]4(C)[C@H]3CC[C@]12C` [I-h, (E,E)-17β-[3-(2-dimethylaminoethoxyimino)-1-propenyl]-androst-5-en-3β-ol]: the half-maximal inhibitory concentration (IC50) in assay [1] was 1000 nM; in assay [2] it was 5010 nM.

`CN(C)CCCO/N=C/C=C/[C@H]1CC[C@H]2[C@@H]3CC=C4C[C@@H](O)CC[C@]4(C)[C@H]3CC[C@]12C` [I-i, (E,E)-17β-[3-(3-dimethylaminopropoxyimino)-1-propenyl]-androst-5-en-3β-ol]: the 50% inhibitory concentration (IC50) was 631 nM in assay [1] and 2510 nM in assay [2].

With `C[C@]12CC[C@H]3[C@@H](CC=C4C[C@@H](O)CC[C@@]43C)[C@@H]1CC[C@@H]2/C=N/OCCCN` [I-m, (E)-17β-(3-aminopropoxyiminomethyl)-androst-5-en-3β-ol], the figures for the 50% inhibitory concentration (IC50) in assay [1] and in assay [2] were 398 nM and 3980 nM, respectively.

The values are drawn from US5792759A, “17-hydroxyiminoalkyl and 17-hydroxyiminomethylalkenyl cyclopentaneperhydrophenanthrene derivatives active on the cardiovascular system, a process for their preparation and pharmaceutical compositions containing the same” (Sigma-Tau Industrie Farmaceutiche Riunite S.p.A., priority 1995, dated 1998).
